ChEMBL document CHEMBL1201862, “PubChem BioAssay data set” (2004)
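Method: 48-hour compound exposure of cells in 96-well plates, five concentrations, linear interpolation of endpoints. At the GI50, growth is halved.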 Activity calls are given as the source filed them. No stated cut-off is given here; in the data, active = GI50 up to about 1.1 µM and inactive = higher.

Assays:
Assay in all cases: DTP human tumour cell line panel, 48 h
SF-268 = tested on: SF-268
BT-549 = tested on: BT-549
MDA-MB-435 = tested on: MDA-MB-435
SK-MEL-28 = tested on: SK-MEL-28
A549 = tested on: A549
SK-MEL-2 = tested on: SK-MEL-2
CCRF-CEM = tested on: CCRF-CEM
SNB-19 = tested on: SNB-19
SR = tested on: SR
CAKI-1 = tested on: CAKI-1
SK-MEL-5 = tested on: SK-MEL-5
T47D = tested on: T47D
TK-10 = tested on: TK-10
IGROV-1 = tested on: IGROV-1
SN12C = tested on: SN12C
HL-60 = tested on: HL-60
HOP-62 = tested on: HOP-62
A498 = tested on: A498
Malme-3M = tested on: Malme-3M

Row | SMILES | GI50 (SF-268) | GI50 (BT-549) | GI50 (MDA-MB-435) | GI50 (SK-MEL-28) | GI50 (A549) | GI50 (SK-MEL-2) | GI50 (CCRF-CEM) | GI50 (SNB-19) | GI50 (SR) | GI50 (CAKI-1) | GI50 (SK-MEL-5) | GI50 (T47D) | GI50 (TK-10) | GI50 (IGROV-1) | GI50 (SN12C) | GI50 (HL-60) | GI50 (HOP-62) | GI50 (A498) | GI50 (Malme-3M)
1 | CSc1nncc2[nH]cnc12 | > 100 µM (inactive) | > 100 µM (inactive) | > 100 µM (inactive) | > 100 µM (inactive) | > 100 µM (inactive) | > 100 µM (inactive) | > 100 µM (inactive) | > 100 µM (inactive) | > 100 µM (inactive) | > 100 µM (inactive) | > 100 µM (inactive) | > 100 µM (inactive) | > 100 µM (inactive) | > 100 µM (inactive) | > 100 µM (inactive) | > 100 µM (inactive) | > 100 µM (inactive) | > 100 µM (inactive) | 
2 | c1ccc(-c2cc(-c3cccs3)c(-c3cccs3)o2)cc1 | > 100 µM (inactive) | > 100 µM (inactive) | > 100 µM (inactive) | > 100 µM (inactive) | > 100 µM (inactive) | 34.7 µM (inactive) | > 100 µM (inactive) | > 100 µM (inactive) | > 100 µM (inactive) | > 100 µM (inactive) | > 100 µM (inactive) | > 100 µM (inactive) | > 100 µM (inactive) | > 100 µM (inactive) | > 100 µM (inactive) | > 100 µM (inactive) | > 100 µM (inactive) | > 100 µM (inactive) | 
3 | C[S+]([O-])c1ncc2c(n1)-c1ccccc1OC2 (stereo not drawn) | > 100 µM (inactive) | > 100 µM (inactive) | > 100 µM (inactive) | > 100 µM (inactive) | > 100 µM (inactive) | > 100 µM (inactive) | > 100 µM (inactive) | > 100 µM (inactive) | > 100 µM (inactive) | 83.8 µM (inactive) | 78.3 µM (inactive) | 35.2 µM (inactive) | 45.7 µM (inactive) | 49.1 µM (inactive) | 47 µM (inactive) | 36.7 µM (inactive) | > 100 µM (inactive) |  | > 100 µM (inactive)
4 | O=C(O)[C@@H]1C2CC([C@@H]1C(=O)O)[C@H](N1C(=O)CCC1=O)[C@@H]2Br (stereo partly drawn) | > 100 µM (inactive) | > 100 µM (inactive) | > 100 µM (inactive) | > 100 µM (inactive) | > 100 µM (inactive) | > 100 µM (inactive) | > 100 µM (inactive) | > 100 µM (inactive) | > 100 µM (inactive) |  | > 100 µM (inactive) | > 100 µM (inactive) | > 100 µM (inactive) | > 100 µM (inactive) | > 100 µM (inactive) | > 100 µM (inactive) | > 100 µM (inactive) | > 100 µM (inactive) | > 100 µM (inactive)
5 | CCOC(=O)C1CCC(=O)N1C(=O)c1ccccc1Cl (stereo not drawn) | > 100 µM (inactive) | > 100 µM (inactive) | > 100 µM (inactive) | > 100 µM (inactive) | > 100 µM (inactive) |  | > 100 µM (inactive) | > 100 µM (inactive) | > 100 µM (inactive) | > 100 µM (inactive) | > 100 µM (inactive) | > 100 µM (inactive) | > 100 µM (inactive) | > 100 µM (inactive) | > 100 µM (inactive) | > 100 µM (inactive) | > 100 µM (inactive) | > 100 µM (inactive) | > 100 µM (inactive)
6 | COc1cccc(-c2cc(=O)c3ccccc3o2)c1N | 61.2 µM (inactive) | > 100 µM (inactive) | 23 µM (inactive) | 10.1 µM (inactive) | > 91.8 µM (inactive) | 27.4 µM (inactive) | > 100 µM (inactive) | 51.9 µM (inactive) | > 100 µM (inactive) | > 100 µM (inactive) | 42.8 µM (inactive) | 11.9 µM (inactive) | > 100 µM (inactive) | 87.5 µM (inactive) | > 100 µM (inactive) | 6.76 µM (inactive) | 18.3 µM (inactive) |  | 3.62 µM (inactive)
7 | CCCCCCCC/C=C\CCCCCCCC(=O)OC[C@]1(CO)CCC(=O)O1 | > 100 µM (inactive) | > 100 µM (inactive) | > 100 µM (inactive) | > 100 µM (inactive) | > 100 µM (inactive) | > 100 µM (inactive) | > 100 µM (inactive) | > 100 µM (inactive) | > 100 µM (inactive) | > 100 µM (inactive) | > 100 µM (inactive) | > 100 µM (inactive) | > 100 µM (inactive) | > 100 µM (inactive) | > 100 µM (inactive) |  | > 100 µM (inactive) | > 100 µM (inactive) | > 100 µM (inactive)
8 | C=C1c2ccccc2C(=O)c2c1c1c(C(=O)OC)c(O)ccc1n2Cc1ccccc1 | 0.175 µM (active) | 0.585 µM (active) | 0.255 µM (active) | 0.31 µM (active) | 1.11 µM (active) | 0.817 µM (active) | 0.203 µM (active) | 0.35 µM (active) | 0.132 µM (active) | 0.407 µM (active) | 0.7 µM (active) | 0.653 µM (active) | 0.459 µM (active) | 0.234 µM (active) | 0.312 µM (active) | 0.265 µM (active) | 0.516 µM (active) |  | 0.445 µM (active)
9 | C/C=C(\C)c1cc(=O)c2c(C)cc3c(c2o1)C(OC)(OC(C)=O)c1c(O)c(C2CC(C)(N(C)C)C(OC(C)=O)C(C)O2)cc(C2CC(N(C)C)C(OC(C)=O)C(C)O2)c1C3=O (stereo not drawn) | 0.27 µM (active) | 2.27 µM (inactive) | 1.52 µM (inactive) | 3.77 µM (inactive) | 0.514 µM (active) | 2.18 µM (inactive) | 0.419 µM (active) | 1.78 µM (inactive) | 0.0251 µM (active) | 0.436 µM (active) | 1.51 µM (inactive) | 3.74 µM (inactive) | 1.45 µM (inactive) | 1.61 µM (inactive) | 0.893 µM (active) |  | 0.621 µM (active) | 1.27 µM (inactive) | 0.544 µM (active)
10 | Cc1oc2c(c1C)S(=O)(=O)C(C#N)=C(c1ccccc1)N2 | > 100 µM (inactive) | > 100 µM (inactive) | > 100 µM (inactive) | > 100 µM (inactive) | > 100 µM (inactive) | > 100 µM (inactive) |  | > 100 µM (inactive) | > 100 µM (inactive) | > 100 µM (inactive) | > 100 µM (inactive) | > 100 µM (inactive) | > 100 µM (inactive) | > 100 µM (inactive) | > 100 µM (inactive) |  | > 100 µM (inactive) | > 100 µM (inactive) | 63.5 µM (inactive)
11 | Oc1ncc(Cl)c(O)n1 | > 100 µM (inactive) | > 100 µM (inactive) | > 100 µM (inactive) | > 100 µM (inactive) | > 100 µM (inactive) | > 100 µM (inactive) | > 100 µM (inactive) | > 100 µM (inactive) | > 100 µM (inactive) | > 100 µM (inactive) | > 100 µM (inactive) | > 100 µM (inactive) | > 100 µM (inactive) | > 100 µM (inactive) | > 100 µM (inactive) | > 100 µM (inactive) |  | > 100 µM (inactive) | > 100 µM (inactive)
12 | COc1ccc(NCc2c(O)ccc3ccccc23)cc1 | 19.9 µM (inactive) | 18.6 µM (inactive) | 42.9 µM (inactive) | 27.4 µM (inactive) | 61.4 µM (inactive) | 64.1 µM (inactive) |  | > 100 µM (inactive) | 17.1 µM (inactive) | 22.3 µM (inactive) | 12.4 µM (inactive) | 17.4 µM (inactive) | 17.9 µM (inactive) | 20.4 µM (inactive) | 34.4 µM (inactive) |  | 68.2 µM (inactive) | 24.6 µM (inactive) | 20.7 µM (inactive)
13 | C#CCSc1cnc2ccccc2c1Sc1c[nH]c2ccccc2c1=O | 29.9 µM (inactive) | 28.7 µM (inactive) | 23.6 µM (inactive) | 34.8 µM (inactive) | 14.4 µM (inactive) | 19.1 µM (inactive) | > 100 µM (inactive) | 16.1 µM (inactive) | 3.86 µM (inactive) | 23.7 µM (inactive) | 15.6 µM (inactive) | 10.9 µM (inactive) | 40.2 µM (inactive) | 3.29 µM (inactive) | 12.8 µM (inactive) | 16.6 µM (inactive) | 26.5 µM (inactive) |  | 19.4 µM (inactive)
14 | CN(C)c1ccc(/C=C(/NC(=O)c2ccccc2)C(=O)Nc2ccccc2C(=O)O)cc1 | > 100 µM (inactive) | > 100 µM (inactive) | > 100 µM (inactive) | > 100 µM (inactive) | > 100 µM (inactive) | > 100 µM (inactive) | > 100 µM (inactive) | > 100 µM (inactive) | > 100 µM (inactive) | > 100 µM (inactive) | > 100 µM (inactive) | > 100 µM (inactive) |  | > 100 µM (inactive) | > 100 µM (inactive) | > 100 µM (inactive) | > 100 µM (inactive) | 57 µM (inactive) | > 100 µM (inactive)
15 | CC1=C(C(N)=O)C(c2ccncc2)C(C#N)=C2SCC(=O)N12 (stereo not drawn) | > 100 µM (inactive) | > 100 µM (inactive) | > 100 µM (inactive) | > 100 µM (inactive) | > 100 µM (inactive) | > 100 µM (inactive) | > 100 µM (inactive) | > 100 µM (inactive) | > 100 µM (inactive) | > 100 µM (inactive) | > 100 µM (inactive) | > 100 µM (inactive) |  | > 100 µM (inactive) | > 100 µM (inactive) | > 100 µM (inactive) | > 100 µM (inactive) | > 100 µM (inactive) | > 100 µM (inactive)
